Measurements taken from ChEMBL document CHEMBL1201862, “PubChem BioAssay data set” (2004).
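Dose response: 5 concentrations. Exposure: 48 h. Format: 96-well plates. Endpoint: linear interpolation; highest concentration if not reached. Here, GI50 denotes the concentration required for 50% inhibition of growth.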 Active and inactive are the calls of the source. Rule as the data show it: active = GI50 up to about 1.1 µM and inactive = higher.

Experiments:
Assay in all cases: DTP human tumour cell line panel, 48 h
[1] = test system: OVCAR-4
[2] = test system: SF-295
[3] = test system: RXF 393
[4] = test system: SK-OV-3
[5] = test system: SK-MEL-2
[6] = test system: SNB-19
[7] = test system: HCT-15
[8] = test system: OVCAR-8
[9] = test system: A549
[10] = test system: HCT-116
[11] = test system: ACHN
[12] = test system: UACC-257
[13] = test system: NCI-H226
[14] = test system: K562
[15] = test system: UACC-62
[16] = test system: SR

SMILES | GI50 [1] | GI50 [2] | GI50 [3] | GI50 [4] | GI50 [5] | GI50 [6] | GI50 [7] [µM] | GI50 [8] | GI50 [9] | GI50 [10] | GI50 [11] | GI50 [12] | GI50 [13] | GI50 [14] | GI50 [15] | GI50 [16]
CC1=NN2C(c3ccc(C)cc3)=CSC2=NC(C)(C)C1 | > 100 µM (inactive) | > 100 µM (inactive) | > 100 µM (inactive) | > 100 µM (inactive) | > 100 µM (inactive) | > 100 µM (inactive) | > 100 | > 100 µM (inactive) | > 100 µM (inactive) | > 100 µM (inactive) | > 100 µM (inactive) | > 100 µM (inactive) | > 100 µM (inactive) | 61.5 µM (inactive) | > 100 µM (inactive) | 
CCCCCCCCCCCCCCCCCC(=O)NCC(COP(=O)([O-])OCC[N+](C)(C)C)OC (configuration not stated) | 3.6 µM (inactive) | 3.46 µM (inactive) | 0.652 µM (active) | 15.2 µM (inactive) |  | 1.91 µM (inactive) | 1.95 | 10.9 µM (inactive) | 10.3 µM (inactive) | 5.66 µM (inactive) | 10.8 µM (inactive) | 15.9 µM (inactive) | 3.44 µM (inactive) | > 10 µM (inactive) | 4.53 µM (inactive) | 2.16 µM (inactive)
COc1ccc(/C=C/C(=O)C(C)(C)CN2CCCCC2)cc1 | 7.36 µM (inactive) | 38.1 µM (inactive) | 21.3 µM (inactive) | 21.5 µM (inactive) | 16.3 µM (inactive) | 57.7 µM (inactive) | 16.3 | 19 µM (inactive) | 26.8 µM (inactive) | 16.2 µM (inactive) | 24.4 µM (inactive) | 17.4 µM (inactive) | 20.9 µM (inactive) | 24.2 µM (inactive) | 24.7 µM (inactive) | 
CC(=O)N(C)c1ccc2c(ccc[n+]2[O-])c1[N+](=O)[O-] | > 100 µM (inactive) | > 100 µM (inactive) | > 100 µM (inactive) |  | > 100 µM (inactive) |  | > 100 | > 100 µM (inactive) | > 100 µM (inactive) | > 100 µM (inactive) | > 100 µM (inactive) | > 100 µM (inactive) | > 100 µM (inactive) | > 100 µM (inactive) | > 100 µM (inactive) | 
[O-]/[N+](=C\c1ccccc1)[C@H](COCc1ccccc1)c1ccccc1 |  | 36 µM (inactive) | 36.6 µM (inactive) | > 100 µM (inactive) | 27.3 µM (inactive) | 59.8 µM (inactive) |  | > 100 µM (inactive) | 51.6 µM (inactive) | 40.8 µM (inactive) | 66.4 µM (inactive) | > 100 µM (inactive) |  | 48.9 µM (inactive) |  | 
C[C@]12CCC3[C@@H](CC[C@@H]4c5nonc5CC[C@]34C)C1CCC(=O)N2 (some centres not stated) | > 100 µM (inactive) | > 100 µM (inactive) | > 100 µM (inactive) | > 100 µM (inactive) | 0.356 µM (active) | > 100 µM (inactive) | > 100 | > 100 µM (inactive) | > 100 µM (inactive) | > 100 µM (inactive) | > 100 µM (inactive) | > 100 µM (inactive) | > 100 µM (inactive) | > 100 µM (inactive) | > 100 µM (inactive) | 
CCCCCCCCCCCCC/C=C1\C[C@H](O)COC1=O | 16.9 µM (inactive) | 18.1 µM (inactive) | 20 µM (inactive) | 20.8 µM (inactive) | 16.6 µM (inactive) | 18.9 µM (inactive) | 16.5 |  | 19.5 µM (inactive) | 15.9 µM (inactive) | 15.9 µM (inactive) | 14.8 µM (inactive) | 16.3 µM (inactive) | 15.9 µM (inactive) | 13.7 µM (inactive) | 18.6 µM (inactive)
CC(=O)NNc1nc(C)c(C(=O)NNC(=O)C(=O)Nc2ccc(Cl)c([N+](=O)[O-])c2)s1 | 34.4 µM (inactive) | 74.8 µM (inactive) |  | > 100 µM (inactive) | > 100 µM (inactive) | > 100 µM (inactive) | 49.3 | 54.8 µM (inactive) | 85.5 µM (inactive) | 85.3 µM (inactive) | 41.1 µM (inactive) | 37.4 µM (inactive) | > 100 µM (inactive) | 26.2 µM (inactive) | 58.9 µM (inactive) | 35.1 µM (inactive)
NCc1c(C(N)=O)ncn1Cc1ccccc1 | > 100 µM (inactive) | > 100 µM (inactive) | > 100 µM (inactive) | > 100 µM (inactive) |  | > 100 µM (inactive) | > 100 | > 100 µM (inactive) | > 100 µM (inactive) | > 100 µM (inactive) | > 100 µM (inactive) | > 100 µM (inactive) |  | > 100 µM (inactive) | > 100 µM (inactive) | 
CCN(C(C)=N)c1ccccc1 | 66.8 µM (inactive) | 43.5 µM (inactive) | > 100 µM (inactive) | > 100 µM (inactive) | > 100 µM (inactive) | 78.7 µM (inactive) | > 100 | > 100 µM (inactive) | > 100 µM (inactive) | 48.9 µM (inactive) | 61.5 µM (inactive) | 17.2 µM (inactive) | 56.8 µM (inactive) | 43.6 µM (inactive) | > 100 µM (inactive) | 
